Where “and” joins values, the source holds several entries; their conditions need not be identical. Equal entries are not always repeated.
What was measured:
MBNL-cTNT interaction = biological target: T1, MBNL-cTNT interaction (Homo sapiens, UniProt Q9NR56); test: Gel shift assay, disruption of MBNL binding to cTNT pre-mRNA site; conditions: read-out: EC50 for disruption of MBNL binding to cTNT target construct
T1 construct: Both the full length MBNL and MBNL (1-260) constructs were cloned using BamHI and NotI restriction sites; GST (N, cleaved yes); made in house; host or cells: E. coli BL21-Star
T1 sequence (Q9NR56 1-382 isoform Q9NR56-5): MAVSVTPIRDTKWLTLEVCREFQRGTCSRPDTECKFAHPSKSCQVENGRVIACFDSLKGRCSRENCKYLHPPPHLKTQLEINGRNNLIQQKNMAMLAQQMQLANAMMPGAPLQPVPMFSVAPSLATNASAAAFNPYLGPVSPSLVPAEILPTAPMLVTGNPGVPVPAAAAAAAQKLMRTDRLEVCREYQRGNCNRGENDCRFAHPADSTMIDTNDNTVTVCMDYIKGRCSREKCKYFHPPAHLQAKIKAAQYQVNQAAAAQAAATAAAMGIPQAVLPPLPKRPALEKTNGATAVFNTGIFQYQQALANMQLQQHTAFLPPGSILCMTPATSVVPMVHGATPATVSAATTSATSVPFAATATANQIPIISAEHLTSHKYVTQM
Experimental: Solutions for the protein-RNA binding experiments contained 125 mM NaCl, 5 mM MgCl2, 20 mM Tris (pH 7.5), 7.5% glycerol, 2 mg/ml bovine serum albumin, and 0.1 mg/ml heparin. Prior to incubation, RNA substrates were annealed by incubation at 95° C. for 2 minutes and then placed directly on ice for 20 minutes in 66 mM NaCl, 6.7 mM MgCl2, and 27 mM Tris (pH 7.5). Protein was then added to the RNA in the presence or absence of the small molecule. The binding reaction was carried out in a 10 μL volume and was incubated for 10 minutes at room temperature before 2-4 μL were loaded on a pre-chilled 4° C. gel. […]
For binding curves, gels were quantified using ImageQuant® software (Molecular Dynamics, Piscataway, N.J.). The percent RNA bound was determined by taking the ratio of RNA-protein complex to total RNA, per lane. […] Binding curves were graphed using KaleidaGraph software (Synergy Software, Reading, Pa.). For the neomycin B and CUG8 gel shift, the apparent Kd was determined using Equation 1, where Y=fraction bound, m0=small molecule concentration, m1=total RNA concentration, and m2=Kd. […]
Pentamidine has been shown previously to bind to other RNAs and DNAs (Zhang et al., RNA 6:937-951, 2000); therefore, we determined pentamidine binding to an endogenous target of MBNL. […]

MBNL-CUG RNA complex = biological target: T2, MBNL-CUG RNA complex (Homo sapiens, UniProt Q9NR56); test: Gel shift assay, disruption of MBNL binding to short CUG repeat RNA
T2 construct: Both the full length MBNL and MBNL (1-260) constructs were cloned using BamHI and NotI restriction sites; GST (N, cleaved yes); made in house; host or cells: E. coli BL21-Star
T2 sequence (Q9NR56 1-382 isoform Q9NR56-5): T1 sequence (Q9NR56 1-382 isoform Q9NR56-5)
Experimental: MBNL1 (MBNL) was PCR amplified and was cloned into GST fusion vector pGEX-6P-1 (GE Healthcare, Piscataway, N.J.), using DNA encoding a MBNL isoform with amino acids 1-382). Both the full length MBNL and MBNL (1-260) constructs were cloned using BamHI and NotI restriction sites. Using BL21-Star expression cells (Invitrogen, Carlsbad, Calif.), protein expression was induced with 0.25 mM IPTG at an OD600 of about 0.5-1, for 3-4 hours at 37° C. Cells were lysed in 30 ml of buffer (500 mM NaCl, 25 mM Tris pH 7.5, 10 mM β-mercaptoethanol (BME) and 5% glycerol) using 1 mg/ml of lysozyme, followed by sonication (3×30 seconds). Cell extract was centrifuged for 15 minutes at 17,000 rpm, and lysate which contained GST-MBNL was collected. GST-MBNL was bound to GST affinity beads for 30 minutes at 4° C. […] The protein was then run over an anion exchange (Q) column. […] MBNL was collected in the column flow through, concentrated and dialyzed into storage buffer (30% glycerol, 300 mM NaCl, 20 mM Tris pH 7.5, 5 mM BME) and stored at −80° C. Aliquots were removed from −80° C. and temporarily placed at −20° C. until used for an experiment.
All RNA substrates that were radiolabeled were ordered from IDT DNA (Coralville, Iowa), and 5′ end-labeled using [γ-^32P]ATP. All radiolabeled RNAs were purified on 8% polyacrylamide denaturing gels.
Solutions for the protein-RNA binding experiments contained 125 mM NaCl, 5 mM MgCl2, 20 mM Tris (pH 7.5), 7.5% glycerol, 2 mg/ml bovine serum albumin, and 0.1 mg/ml heparin. Prior to incubation, RNA substrates were annealed by incubation at 95° C. for 2 minutes and then placed directly on ice for 20 minutes in 66 mM NaCl, 6.7 mM MgCl2, and 27 mM Tris (pH 7.5). Protein was then added to the RNA in the presence or absence of the small molecule. The binding reaction was carried out in a 10 μL volume and was incubated for 10 minutes at room temperature before 2-4 μL were loaded on a pre-chilled 4° C. gel. RNA and RNA-protein complexes were separated on 3% acrylamide (37.5:1), 0.3% agarose (low melting point), 0.5× Tris-Borate (TB) gels, run for approximately 2-3 hours at 4° C. at 25-50 volts. Gels were dried and autoradiographed. For the neomycin B and CUG8 gel shift, an 8% acrylamide (29:1), 0.5×TB gel was used and run for 3 hours at 4° C. at 175 volts. All small molecules were dissolved in either water or ethanol, according to the manufacturer's guidance for solubility.
For binding curves, gels were quantified using ImageQuant® software (Molecular Dynamics, Piscataway, N.J.). The percent RNA bound was determined by taking the ratio of RNA-protein complex to total RNA, per lane. Any counts in the well were discarded as it was unapparent if the RNA was bound by protein, small molecule or was in an aggregate. Binding curves were graphed using KaleidaGraph software (Synergy Software, Reading, Pa.). For the neomycin B and CUG8 gel shift, the apparent Kd was determined using Equation 1, where Y=fraction bound, m0=small molecule concentration, m1=total RNA concentration, and m2=Kd.
For determining the EC50, Equation 3 was used, where m0=small molecule concentration, m1=EC50, m2=Hill coefficient, and m3=fraction MBNL bound without small molecule present. Y=m3/[1+(m0/m1)^m2] Equation 3 Results

[1] = system: Clc-1 pre-mRNA splicing, HSA^LR transgenic mice; test: Clc-1 exon 7a splicing in vastus muscle of HSA^LR mouse model of DM; type: in vivo; conditions: intraperitoneal, saline HSA^LR control 46±6%, normal mice 94±1%
Experimental: Mouse handling and experimental procedures were conducted in accordance with the Association for Assessment and Accreditation of Laboratory Animal Care. HSA^LR transgenic mice in line 20b expressing human skeletal actin mRNA with ˜250 CUG repeats in the 3′ UTR were used (Mankodi et al., Science 289:1769-1772, 2000). Age- and gender-matched HSA^LR mice were injected intraperitoneally with pentamidine or saline (control). For a low-dose regimen, 25 mg/kg of pentamidine was administrated twice daily for 5 days. For a higher-dose regimen, 40 mg/kg of pentamidine was injected once daily for 7 days. Mice were sacrificed one day after the last injection, and vastus muscle was obtained for splicing analysis. […] PCR amplification was carried out for 22-24 cycles with the following primer pairs: Clc-1 forward, [sequence] (SEQ ID NO: 7), and reverse, [sequence] (SEQ ID NO: 8); Serca1 forward, [sequence] (SEQ ID NO: 9), and reverse, [sequence] (SEQ ID NO: 10). The PCR products were analyzed on agarose gels and scanned with a laser fluorimager (Typhoon, GE Healthcare, Piscataway, N.J.). Differences between the two groups were evaluated by Student's t-test.

[2] = mouse, in vivo
Experimental: Mouse handling and experimental procedures were conducted in accordance with the Association for Assessment and Accreditation of Laboratory Animal Care. HSA^LR transgenic mice in line 20b expressing human skeletal actin mRNA with ˜250 CUG repeats in the 3′ UTR were used (Mankodi et al., Science 289:1769-1772, 2000). Age- and gender-matched HSA^LR mice were injected intraperitoneally with pentamidine or saline (control). For a low-dose regimen, 25 mg/kg of pentamidine was administrated twice daily for 5 days. For a higher-dose regimen, 40 mg/kg of pentamidine was injected once daily for 7 days. Mice were sacrificed one day after the last injection, and vastus muscle was obtained for splicing analysis. […] The PCR products were analyzed on agarose gels and scanned with a laser fluorimager (Typhoon, GE Healthcare, Piscataway, N.J.). Differences between the two groups were evaluated by Student's t-test.
The ability of pentamidine to rescue mis-splicing in a mouse model (HSA^LR) where CUG repeats are expressed was tested. Pentamidine was administered by intraperitoneal injection in two dosage regimens, and mis-splicing of the Clc-1 and Serca1 pre-mRNAs was measured.

In the case of N=C(N)c1ccc(OCCCCCOc2ccc(C(=N)N)cc2)cc1 [pentamidine], the EC50 (MBNL-cTNT interaction) is reported as ~85 µM and 85 µM, the “Disruption of the MBNL-CUG interaction” value (MBNL-CUG RNA complex; gel shift screen, increasing amounts of small molecule) is reported as “disrupt the MBNL-CUG interaction at micromolar concentrations” and the EC50 (MBNL-CUG RNA complex; gel shift, short CUG repeat RNA (CUG4), read-out: EC50 for disruption of MBNL binding to CUG repeat construct) is reported as ~58 µM and 58 µM. The “Clc-1 exon 7a exclusion” value ([1]; 25 mg/kg twice daily for 5 days) was 63±3%, the “Clc-1 exon 7a exclusion” value ([1]; 40 mg/kg once daily for 7 days) was 66±4% and the Toxicity in mice [2] was “substantial toxicity”.

Reference: patent US8436049B2, “Uses of pentamidine and related compounds” (State of Oregon Acting By and Through the State Board of …, priority 2008, dated 2013)
